Data on ten compounds can be found in US4450269A, “Mono-5-substituted-3-chloro-4H-1,2,6-thiadiazin-4-one antifungal agents” (FMC Corporation, priority 1980, dated 1984).

Test [1] relates to Pythium ultimum. In words: Mycelial growth test. The class given is cell-based. Particulars: PU; for inhibition at 5 ppm / inhibition at 10 ppm / inhibition at 20 ppm / inhibition at 40 ppm: Globisporangium ultimum, 72 h, read-out: Percent Fungus Growth Inhibition.
Test [2] deals with Fusarium solani. The experiment in a line: Soil treatment, bean root rot. Particulars: Fusarium solani, soil, 336 h; 150 ppm suspension, 3.8 mg active per pot; read-out: Percent Disease Control, seed/soil, bean root rot. The class given is in vivo. In outline:
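Soil around bean seedlings was drenched with a 150 ppm suspension, giving 3.8 mg active per pot. Twenty-four hours later the soil was inoculated with minced Fusarium solani mycelium. Plants were kept in a greenhouse, and percent control of root rot damage was scored after fourteen days.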

Test [3] deals with Cercospora beticola. The experiment in a line: whole plant or invertebrate. Particulars: in Beta vulgaris, foliar, 24 h, read-out: Percent Disease Control, curative, sugar beet leaf spot.

For the compound `Cc1cc(C)cc(Oc2nsnc(Cl)c2=O)c1` [Compound 25, 3-chloro-5-(3,5-dimethylphenoxy)-4H--1,2,6-thiadiazin-4-one], in test [1], the inhibition at 5 ppm was 0%, the inhibition at 10 ppm worked out at 47% and the inhibition at 40 ppm came to 100%. The inhibition at 20 ppm in test [1] (20 ppm) worked out at 100%. The pest or weed control at 150 ppm, 3.8 mg/pot in test [2] came out at 0%. Further, the pest or weed control at 150 ppm in test [3] stood at 50%.

As to `Nc1ccc(Oc2nsnc(Cl)c2=O)cc1` [Compound 26, 5-(4-aminophenoxy)-3-chloro-4H--1,2,6-thiadiazin-4-one], in test [1], the inhibition at 5 ppm turned out to be 0%, the inhibition at 10 ppm stood at 0% and the inhibition at 40 ppm was found to be 100%. For the same compound, the “Percent Fungus Growth Inhibition” value in test [1] (20 ppm, 72 hours) was 13%. For the same compound, the pest or weed control at 150 ppm, 3.8 mg/pot in test [2] stood at 0%. Moreover, the pest or weed control at 150 ppm in test [3] worked out at 95%.

`CNC(=O)Nc1ccc(Oc2nsnc(Cl)c2=O)cc1` [Compound 28, 3-chloro-5-[4-(3-methylureido)-phenoxy]-4H--1,2,6-thiadiazin-4-one]: in test [1], the inhibition at 5 ppm was 0%, the inhibition at 10 ppm was 80% and the inhibition at 40 ppm was found to be 100%. Further, in test [1] (20 ppm), the inhibition at 20 ppm was found to be 91%. For the same compound, the pest or weed control at 150 ppm, 3.8 mg/pot in test [2] came to 95%. Further, the pest or weed control at 150 ppm in test [3] came to 0%.

For `O=C(Nc1ccccc1)Nc1ccc(Oc2nsnc(Cl)c2=O)cc1` [Compound 29, 3-chloro-5-[4-(3-phenylureido)-phenoxy]-4H--1,2,6-thiadiazin-4-one], in test [1], the inhibition at 5 ppm amounted to 0%, the inhibition at 10 ppm was 0% and the inhibition at 40 ppm was found to be 0%. In test [1] (20 ppm), the inhibition at 20 ppm was determined as 0%. Further, the pest or weed control at 150 ppm, 3.8 mg/pot in test [2] came to 0%. Also, the pest or weed control at 150 ppm in test [3] was 95%.

As for `O=c1c(Cl)nsnc1Oc1c(Cl)cc(Cl)cc1Cl` [Compound 30, 3-chloro-5-(2,4,6-trichlorophenoxy)-4H--1,2,6-thiadiazin-4-one], in test [1], the inhibition at 5 ppm is 20%, the inhibition at 10 ppm was determined as 71% and the inhibition at 40 ppm was determined as 100%. Besides, in test [1] (20 ppm), the inhibition at 20 ppm came out at 96%. Besides, the pest or weed control at 150 ppm, 3.8 mg/pot in test [2] came out at 0%. For the same compound, the pest or weed control at 150 ppm in test [3] worked out at 0%.

For `O=c1c(Cl)nsnc1Oc1c(Cl)c(Cl)c(Cl)c(Cl)c1Cl` [Compound 31, 3-chloro-5-(pentachlorophenoxy)-4H--1,2,6-thiadiazine-4-one], in test [1], the inhibition at 5 ppm was determined as 0%, the inhibition at 10 ppm turned out to be 0% and the inhibition at 40 ppm is 0%. Moreover, in test [1] (20 ppm), the inhibition at 20 ppm came to 0%. For the same compound, the pest or weed control at 150 ppm, 3.8 mg/pot in test [2] worked out at 0%. Also, the pest or weed control at 150 ppm in test [3] was determined as 0%.

Turning to `O=c1c(Cl)nsnc1Oc1cccc2ccccc12` [Compound 32, 3-chloro-5(1-naphthoxy)-4H-1,2,6-thiadiazin-4-one], in test [1], the inhibition at 5 ppm was found to be 73%, the inhibition at 10 ppm came to 73% and the inhibition at 40 ppm was 100%. Besides, the inhibition at 20 ppm in test [1] (20 ppm) came out at 100%. For the same compound, in test [2], the pest or weed control at 150 ppm, 3.8 mg/pot came to 0%. Moreover, in test [3], the pest or weed control at 150 ppm is 90%.

As for `O=c1c(Cl)nsnc1Oc1ccccc1Br` [Compound 34, 3-chloro-5-(2-bromophenoxy)-4H-1,2,6,-thiadiazin-4-one], in test [1], the inhibition at 5 ppm came to 0%, the inhibition at 10 ppm was determined as 64% and the inhibition at 40 ppm turned out to be 100%. In addition, the inhibition at 20 ppm in test [1] (20 ppm) was determined as 87%. The pest or weed control at 150 ppm, 3.8 mg/pot in test [2] came out at 0%. For the same compound, the pest or weed control at 150 ppm in test [3] turned out to be 0%.

Take `CC(=O)Nc1cccc(Oc2nsnc(Cl)c2=O)c1` [Compound 42, 3-[(3-N--acetylamino)-phenoxy]-5-chloro-4H--1,2,6-thiadiazin-4-one]: in test [1], the inhibition at 5 ppm turned out to be 0%, the inhibition at 10 ppm is 42% and the inhibition at 40 ppm was 100%. Further, in test [1] (20 ppm), the inhibition at 20 ppm amounted to 100%. The pest or weed control at 150 ppm, 3.8 mg/pot in test [2] came to 90%. For the same compound, in test [3], the pest or weed control at 150 ppm worked out at 0%.

On to `CC(=O)Nc1ccccc1Oc1nsnc(Cl)c1=O` [Compound 43, 3-[(2-acetylamino)-phenoxy]-5-chloro-4H--1,2,6-thiadiazin-4-one], for which, in test [1], the inhibition at 5 ppm was 0%, the inhibition at 10 ppm was 0% and the inhibition at 40 ppm is 0%. In test [1] (20 ppm), the inhibition at 20 ppm stood at 0%. In addition, in test [2], the pest or weed control at 150 ppm, 3.8 mg/pot worked out at 0%. The pest or weed control at 150 ppm in test [3] was 90%.

One may read the inhibition as the relative decrease from the control value, in per cent.
